Results from US8735129B2, “Ginsenoside glycosidase derived from the genus Terrabacter, and use thereof” (Korea Research Institute of Bioscience and Biotechnology, priority 2009, dated 2014).
“And” between values parts separate entries of the source, which are not always exact repeats. Equal values may be shown once. Read-outs that look alike come from different tables or passages of the source. Blank lines part the entries; values can stand above or below the compound they belong to.

What was measured:
[1] = orally administered into the human body; cited from earlier work
Bgl-gyp17 = assay: Substrate preference with chromogenic oNP and pNP glycosides; assay type: biochemical, Terrabacter ginsenosidimutans Gsoil 3082; details: 2.0 mM substrate; for Relative activity (%): 50 mM sodium phosphate pH 7.0, 37° C., activity on ONPGlu = 100%
Experimental: 1 activity unit was defined as the release of o-nitrophenol or p-nitrophenol per minute. For analysis of substrate preference, 2.0 mM chromogenic oNP and pNP (p-nitrophenyl) were used as the substrates, and incubated at 37° C. for 5 minutes. The analyzed substrates (Sigma) were pNP-β-D-glucopyranoside, pNP-β-D-galactopyranoside, pNP-β-D-fucopyranoside, pNP-β-D-glucosaminide, pNP-β-L-arabinopyranoside, pNP-β-D-mannopyronoside, pNP-β-D-xylopyranoside, pNP-α-D-glucopyranoside, pNP-α-L-arabinopyranoside, pNP-α-L-arabinopyranoside, pNP-α-D-rhamnopyranoside, pNP-α-D-mannopyranoside, pNP-α-D-xylopyranoside, o-nitrophenol[oNP]-β-D-glucopyranoside, oNP-β-D-galactopyranoside, oNP-β-D-fucopyranoside, and oNP-β-D-galactopyranoside.
In order to examine the substrate specificity of Bgl-gyp17, it was incubated in 50 mM sodium phosphate buffer containing 2.0 mM βα and β-type p-NP (p-nitrophenyl) and oNP (O-nitrophenyl)-glycosidase at pH 7.0 and 37° C. […] The Km and Vmax for the hydrolysis of pNPGlc by ginsenoside glycosidase were determined using 0-2 mM substrate and the enzyme kinetics program reported by Cleland. The values measured by the program were 4.24 mM and 0.10 mmol*min^−1*mg of protein^−1 for pNpGlc.

recombinant Bgl-gyp17 [2] = assay: Enzymatic hydrolysis of PPD-type ginsenosides (TLC, HPLC, NMR); assay type: biochemical, Terrabacter ginsenosidimutans Gsoil 3082; details: 0.2 U enzyme, 50 mM sodium phosphate pH 7.0, 37° C., hydrolysis of glucoses at C-3
Experimental: In order to analyze the specificity and selectivity of the recombinant enzyme for the hydrolysis of glucose at the C-3 and C-20 positions of PPD-type ginsenoside, ginsenoside Rb1, Rb2, Rc, Rd, and Rg3 were used as substrates. Each reaction mixture containing 0.2 U enzyme, 50 mM sodium phosphate buffer 0.1% (w/v) (pH 7.0), and the substrate was incubated at 37° C. Each sample was withdrawn at regular intervals, and an equal volume of water-saturated butanol was added to stop the reaction. The n-butanol fraction was evaporated to dryness, and any residual material was dissolved in CH3OH and then examined by TLC HPLC or NMR analysis.

[3] = system: purified recombinant BGL-GYP17; assay: Effects of metal ions and chemical agents on ginsenoside glycosidase activity (pNPGlc substrate); assay type: biochemical, Terrabacter ginsenosidimutans Gsoil 3082
recombinant Bgl-gyp17 [4] = assay: Enzymatic hydrolysis of PPD-type ginsenosides (TLC, HPLC, NMR); assay type: biochemical, Terrabacter ginsenosidimutans Gsoil 3082
[5] = 1 mM metal ion or reagent, 30 min at room temperature, pNPGlc substrate, 100% = 44.3 U/mg
[6] = 10 mM metal ion or reagent, 30 min at room temperature, pNPGlc substrate, 100% = 44.3 U/mg

SMILES: CC(C)=CCC[C@](C)(O[C@@H]1O[C@H](CO)[C@@H](O)[C@H](O)[C@H]1O)[C@H]1CC[C@]2(C)[C@@H]1[C@H](O)C[C@@H]1[C@@]3(C)CC[C@H](O)C(C)(C)[C@@H]3[C@@H](O[C@@H]3O[C@H](CO)[C@@H](O)[C@H](O)[C@H]3O[C@@H]3O[C@@H](C)[C@H](O)[C@@H](O)[C@H]3O)C[C@]12C [Re]
in vivo absorption [1]: very low in vivo absorption

SMILES: O=[N+]([O-])c1ccccc1O[C@@H]1O[C@H](CO)[C@@H](O)[C@H](O)[C@H]1O [oNP-β-D-glucopyranoside]
Relative activity (%) (Bgl-gyp17): 100.00 ± 3.542%
activity toward substrate (Bgl-gyp17; pH 7.0, 37° C.): highest activity

SMILES: CC(C)=CCC[C@](C)(O[C@@H]1O[C@H](CO[C@@H]2O[C@@H](CO)[C@H](O)[C@H]2O)[C@@H](O)[C@H](O)[C@H]1O)[C@H]1CC[C@]2(C)[C@@H]1[C@H](O)C[C@@H]1[C@@]3(C)CC[C@H](O[C@@H]4O[C@H](CO)[C@@H](O)[C@H](O)[C@H]4O)C(C)(C)[C@@H]3CC[C@]12C [C-Mc1, compound Mc1]
conversion of the ginsenoside by the enzyme (product) (recombinant Bgl-gyp17 [2]): C-Mc

SMILES: [Cl-].[Na+] [Nacl, NaCl]
Relative activity (%) [3]: 102.3 ± 5.15% and 97.7 ± 4.51%

Relative activity (%) [3, 5]: 92.8 ± 4.72%
Relative activity (%) [3, 6]: 72.8 ± 4.27%
SMILES: [Cl-].[Cl-].[Zn+2] [ZnCl2]

SMILES: O=[N+]([O-])c1ccc(O[C@H]2O[C@H](CO)[C@@H](O)[C@H](O)[C@H]2O)cc1 [pNP-α-D-glucopyranoside]
Relative activity (%) (Bgl-gyp17): 1.12 ± 0.214%

SMILES: O=[N+]([O-])c1ccc(O[C@@H]2O[C@H](CO)[C@H](O)[C@H](O)[C@H]2O)cc1 [pNP-β-D-glactopyranoside]
Relative activity (%) (Bgl-gyp17): 0%

SMILES: CC(C)=CCC[C@](C)(O[C@@H]1O[C@H](CO[C@@H]2O[C@H](CO)[C@@H](O)[C@H](O)[C@H]2O)[C@@H](O)[C@H](O)[C@H]1O)[C@H]1CC[C@]2(C)[C@@H]1[C@H](O)C[C@@H]1[C@@]3(C)CC[C@H](O)C(C)(C)[C@@H]3CC[C@]12C [gyp LXXV, gypenoside LXXV]
conversion of the ginsenoside by the enzyme (product) (recombinant Bgl-gyp17 [2]): C—K
time at which it started to appear (recombinant Bgl-gyp17 [4]; Rb1 substrate, enzyme 1 mg/ml): 10 min
time of decrease to almost undetectable level (recombinant Bgl-gyp17 [4]; Rb1 substrate, enzyme 1 mg/ml): 24 h
time of maximum level (recombinant Bgl-gyp17 [4]; Rb1 substrate, enzyme 1 mg/ml): 2 h

Relative activity (%) [3, 5]: 96.7 ± 5.59%
Relative activity (%) [3, 6]: 96.6 ± 5.14%
SMILES: O[C@@H](CS)[C@@H](O)CS [DTT]

SMILES: N[C@H]1[C@H](Oc2ccc([N+](=O)[O-])cc2)O[C@H](CO)[C@@H](O)[C@@H]1O [pNP-β-D-glucosaminide]
Relative activity (%) (Bgl-gyp17): 0%

SMILES: CC(C)=CCC[C@](C)(O[C@@H]1O[C@H](CO)[C@@H](O)[C@H](O)[C@H]1O)[C@H]1CC[C@]2(C)[C@@H]1[C@H](O)C[C@@H]1[C@@]3(C)CC[C@H](O)C(C)(C)[C@@H]3CC[C@]12C [compound K]
time at which the final product was produced (recombinant Bgl-gyp17 [4]; Rb1 substrate, enzyme 1 mg/ml): 24 h

Relative activity (%) [3, 5]: 98.6 ± 6.49%
Relative activity (%) [3, 6]: 96.6 ± 4.52%
SMILES: O=C(O)CN(CCN(CC(=O)O)CC(=O)O)CC(=O)O [EDTA]

SMILES: O=[N+]([O-])c1ccccc1O[C@H]1O[C@H](CO)[C@H](O)[C@H](O)[C@H]1O [oNP-α-D-galactopyranoside]
Relative activity (%) (Bgl-gyp17): 0%

SMILES: O=[N+]([O-])c1ccc(O[C@@H]2O[C@H](CO)[C@@H](O)[C@H](O)[C@@H]2O)cc1 [pNP-β-D-mannopyranoside]
Relative activity (%) (Bgl-gyp17): 0%

Relative activity (%) [3, 5]: 94.8 ± 5.10%
Relative activity (%) [3, 6]: 95.2 ± 5.14%
SMILES: [Cl-].[Cl-].[Mg+2] [MgCl2]

SMILES: O=[N+]([O-])c1ccccc1O[C@@H]1O[C@H](CO)[C@H](O)[C@H](O)[C@H]1O [oNP-β-D-galatopyranoside]
Relative activity (%) (Bgl-gyp17): 2.33 ± 0.081%

SMILES: O=[N+]([O-])c1ccc(OC2OCC(O)C(O)C2O)cc1 [pNP-β-L-binopyranoside]
Relative activity (%) (Bgl-gyp17): 0%

SMILES: CC(C)=CCC[C@](C)(O[C@@H]1O[C@H](CO[C@@H]2O[C@H](CO)[C@@H](O)[C@H](O)[C@H]2O)[C@@H](O)[C@H](O)[C@H]1O)[C@H]1CC[C@]2(C)[C@@H]1[C@H](O)C[C@@H]1[C@@]3(C)CC[C@H](O[C@@H]4O[C@H](CO)[C@@H](O)[C@H](O)[C@H]4O)C(C)(C)[C@@H]3CC[C@]12C [gyp XVII, gypenoside XVII]
conversion of the ginsenoside by the enzyme (product) (recombinant Bgl-gyp17 [2]): C—K
conversion of the ginsenoside (recombinant Bgl-gyp17 [4]; printed: when ginsenoside Rb1 was 0.1 mg/ml): subsequently converted into gyp LXXV

SMILES: CC(C)=CCC[C@](C)(O[C@@H]1O[C@H](CO)[C@@H](O)[C@H](O)[C@H]1O)[C@H]1CC[C@]2(C)[C@@H]1[C@H](O)C[C@@H]1[C@@]3(C)CC[C@H](O)C(C)(C)[C@@H]3[C@@H](O[C@@H]3O[C@H](CO)[C@@H](O)[C@H](O)[C@H]3O)C[C@]12C [Rg1]
in vivo absorption [1]: very low in vivo absorption

SMILES: O=[N+]([O-])c1ccc(O[C@@H]2OC[C@@H](O)[C@H](O)[C@H]2O)cc1 [pNP-β-D-xylopyranoside]
Relative activity (%) (Bgl-gyp17): 0%

Relative activity (%) [3, 5]: 84.7 ± 4.48%
Relative activity (%) [3, 6]: 71.7 ± 5.07%
SMILES: [Cl][Cu][Cl] [CuCl2]

SMILES: [Cl][Hg][Cl] [Hg^2+, HgCl2]
effect on Bgl-gyp17 activity [3]: strongly inhibited the activity

SMILES: C[C@H]1O[C@@H](Oc2ccc([N+](=O)[O-])cc2)[C@H](O)[C@@H](O)[C@H]1O [pNP-β-D-fucopyranoside]
Relative activity (%) (Bgl-gyp17): 6.98 ± 0.063%

Relative activity (%) [3, 5]: 91.8 ± 4.59%
Relative activity (%) [3, 6]: 101.5 ± 5.23%
SMILES: [Ca+2].[Cl-].[Cl-] [CaCl2]

SMILES: O=[N+]([O-])c1ccc(O[C@@H]2O[C@H](CO)[C@@H](O)[C@H](O)[C@H]2O)cc1 [pNP-β-D-glucopyranoside, p-nitrophenyl-β-D-glucopyranoside]
Relative activity (%) (Bgl-gyp17): 89.52 ± 4.430%

SMILES: CC(C)=CCC[C@](C)(O[C@@H]1O[C@H](CO)[C@@H](O)[C@H](O)[C@H]1O)[C@H]1CC[C@]2(C)[C@@H]1[C@H](O)C[C@@H]1[C@@]3(C)CC[C@H](O[C@@H]4O[C@H](CO)[C@@H](O)[C@H](O)[C@H]4O[C@@H]4O[C@H](CO)[C@@H](O)[C@H](O)[C@H]4O)C(C)(C)[C@@H]3CC[C@]12C [Ginsenoside Rd]
conversion of the ginsenoside by the enzyme (product) (recombinant Bgl-gyp17 [2]): converted into F2
conversion of the ginsenoside by the enzyme (product) (recombinant Bgl-gyp17 [2]; listed as Rd): C—K

SMILES: O=[N+]([O-])c1ccc(O[C@H]2O[C@H](CO)[C@@H](O)[C@H](O)[C@@H]2O)cc1 [pNP-α-D-mannopyranoside]
Relative activity (%) (Bgl-gyp17): 0%

SMILES: [Cl-].[Cl-].[Co+2] [CoCl2]
Relative activity (%) [3]: 100.9 ± 8.43% and 97.0 ± 5.04%

SMILES: O=[N+]([O-])c1ccc(O[C@@H]2O[C@@H](CO)[C@H](O)[C@H]2O)cc1 [pNP-α-L-arabinofuranoside]
Relative activity (%) (Bgl-gyp17): 0%

SMILES: [Cl-].[K+] [KCl]
Relative activity (%) [3, 5]: 102.7 ± 4.65%
Relative activity (%) [3, 6]: 96.2 ± 4.64%

concentration showing an inhibitory effect [3]: ≥ 10 mM
Relative activity (%) [3, 5]: 94.8 ± 6.98%
Relative activity (%) [3, 6]: 2.7 ± 3.22%
SMILES: CCCCCCCCCCCCOS(=O)(=O)[O-].[Na+] [SDS]

SMILES: CC(C)=CCCC(C)(OC1OC(COC2OCC(O)C(O)C2O)C(O)C(O)C1O)C1CCC2(C)C1C(O)CC1C3(C)CCC(OC4OC(CO)C(O)C(O)C4O)C(C)(C)C3CCC12C (centres unmarked) [C—O, compound O]
conversion of the ginsenoside by the enzyme (product) (recombinant Bgl-gyp17 [2]): C—Y

SMILES: C[C@H]1O[C@@H](Oc2ccccc2[N+](=O)[O-])[C@H](O)[C@@H](O)[C@H]1O [oNP-β-D-fucopyranoside]
Relative activity (%) (Bgl-gyp17): 15.88 ± 0.544%

SMILES: O=[N+]([O-])c1ccc(O[C@@H]2OC[C@H](O)[C@H](O)[C@H]2O)cc1 [pNP-α-L-arabinopyranoside]
Relative activity (%) (Bgl-gyp17): 0%

Relative activity (%) [3, 5]: 98.4 ± 4.89%
Relative activity (%) [3, 6]: 102.5 ± 4.57%
SMILES: OCCS [Beta-Mercaptoethanol]

SMILES: C[C@@H]1O[C@@H](Oc2ccc([N+](=O)[O-])cc2)[C@H](O)[C@H](O)[C@H]1O [pNP-α-L-rhamnopyranoside]
Relative activity (%) (Bgl-gyp17): 0%

SMILES: CC(C)=CCC[C@](C)(O)[C@H]1CC[C@]2(C)[C@@H]1[C@H](O)C[C@@H]1[C@@]3(C)CC[C@H](O[C@@H]4O[C@H](CO)[C@@H](O)[C@H](O)[C@H]4O[C@@H]4O[C@H](CO)[C@@H](O)[C@H](O)[C@H]4O)C(C)(C)[C@@H]3CC[C@]12C [ginsenoside Rg3]
conversion of the ginsenoside by the enzyme (product) (recombinant Bgl-gyp17 [2]): produced ginsenoside Rh2
conversion of the ginsenoside by the enzyme (product) (recombinant Bgl-gyp17 [2]; listed as Rg3): PPD

Relative activity (%) [3, 5]: 101.1 ± 5.45%
Relative activity (%) [3, 6]: 96.9 ± 4.79%
SMILES: [Cl][Mn][Cl] [MnCl2]
